Where two headings read alike, the source gives them in different places.
How the values were obtained:
Pg-E2 synthesis = assay: 3H-Arachidonic acid conversion to Pg-E2, CF1 hepatic liver; type: biochemical, mouse
Elastase [1] = assay: Mouse hepatic elastase activity; type: biochemical; conditions: Table VI, 60 min incubation
Source text: (§1) 1. Cf1 male mouse hepatic 10% homogenates in 0.25M sucrose+0.001MEDTA,pH 7.2.
(§2) 2. Elastase- N-succinyl-L-alanyl-L-alanine-p-nitroanilide, pH 8.0, p-nitro anilide 410 nm.
Elastase activity - in vitro

Aryl sulphatase [2] = assay: Mouse macrophage aryl sulphatase activity; type: cell-based; conditions: Table VII; mouse macrophage cultured cells, 60 min incubation; read-out: Aryl Sulphatase IC50
Source text: Mouse macrophages J774A.1 BALB/c

Trypsin [3] = assay: Human osteoporosis fibroblasts trypsin (BAEE) activity; type: cell-based
Source text: 1. Trypsin- N-benzoyl-L-arginine ethyl ester pH 8.0, hydrolytic product 253 nm.

Elastase [4] = assay: Human osteoporosis fibroblasts elastase activity; type: cell-based
Source text: as §2

5'-lipoxygenase = molecular target: T1, 5'-lipoxygenase (Mus musculus, UniProt P48999); assay: Mouse hepatic 5'-lipoxygenase activity; type: biochemical; conditions: Table VI; mouse hepatic, 60 min incubation; read-out: 5'-lipoxygenase IC50
T1 construct: Cf1 male mouse hepatic 10% homogenates; from tissue; host or cells: CF1 male mouse liver, 10% homogenate
T1 sequence (P48999 1-674): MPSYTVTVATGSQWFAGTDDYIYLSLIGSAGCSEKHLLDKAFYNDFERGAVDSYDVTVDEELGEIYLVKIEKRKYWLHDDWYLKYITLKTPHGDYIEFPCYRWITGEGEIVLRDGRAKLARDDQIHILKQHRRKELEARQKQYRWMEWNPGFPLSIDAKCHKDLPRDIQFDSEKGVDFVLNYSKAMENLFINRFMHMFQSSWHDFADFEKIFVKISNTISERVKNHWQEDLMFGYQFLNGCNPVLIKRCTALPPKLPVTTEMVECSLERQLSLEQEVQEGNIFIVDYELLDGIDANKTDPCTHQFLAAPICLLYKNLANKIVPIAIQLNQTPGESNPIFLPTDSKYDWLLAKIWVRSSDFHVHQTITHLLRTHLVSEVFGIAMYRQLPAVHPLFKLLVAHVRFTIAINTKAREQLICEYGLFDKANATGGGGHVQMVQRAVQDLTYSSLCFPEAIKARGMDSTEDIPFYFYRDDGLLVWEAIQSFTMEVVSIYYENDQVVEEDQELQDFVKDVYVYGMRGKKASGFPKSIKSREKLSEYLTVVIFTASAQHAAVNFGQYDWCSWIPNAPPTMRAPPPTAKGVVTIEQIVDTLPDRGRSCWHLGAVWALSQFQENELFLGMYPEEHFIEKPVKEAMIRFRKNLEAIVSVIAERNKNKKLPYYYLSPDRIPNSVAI
Source text: as §1
5'-lipoxygenase Mylari, B.L., et al, J. Med.

Prostaglandin synthetase = molecular target: T2, Prostaglandin synthetase (Bos taurus, UniProt O62664); assay: Prostaglandin synthetase (cyclooxygenase), purified beef seminal vesicle; type: biochemical; conditions: Table IX; commercial enzyme preparation; read-out: Beef Prostaglandin Cyclooxygenase IC50
T2 construct: Prostaglandin synthetase purified beef seminal vesicle; from tissue
T2 sequence (O62664 25-600): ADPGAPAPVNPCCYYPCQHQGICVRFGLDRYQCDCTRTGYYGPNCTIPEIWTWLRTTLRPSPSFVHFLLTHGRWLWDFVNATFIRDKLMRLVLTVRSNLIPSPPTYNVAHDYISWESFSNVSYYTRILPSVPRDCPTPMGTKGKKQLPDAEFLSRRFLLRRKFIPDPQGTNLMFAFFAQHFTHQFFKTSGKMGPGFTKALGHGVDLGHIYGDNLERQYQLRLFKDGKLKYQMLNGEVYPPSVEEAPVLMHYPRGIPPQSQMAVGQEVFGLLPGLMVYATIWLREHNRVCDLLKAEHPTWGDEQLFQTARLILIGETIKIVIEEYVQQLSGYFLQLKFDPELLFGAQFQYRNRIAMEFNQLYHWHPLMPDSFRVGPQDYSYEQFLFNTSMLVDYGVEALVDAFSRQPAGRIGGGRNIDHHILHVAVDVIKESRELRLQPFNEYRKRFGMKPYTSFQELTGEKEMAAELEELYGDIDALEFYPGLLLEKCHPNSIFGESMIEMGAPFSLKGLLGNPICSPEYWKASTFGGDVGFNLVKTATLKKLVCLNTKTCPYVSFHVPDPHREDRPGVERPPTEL
Source text: Prostaglandin synthetase purified beef seminal vesicle ^3 H arachidonic acid (86.2 Ci/mmol), tlc separation.

Hydroxyproline = assay: Serum and urine hydroxyproline levels in vivo; conditions: Cf1 male mice, 8 mg/kg/day I.P. 14 days, N=6
Cathepsin D [5] = molecular target: T3, Cathepsin D (Homo sapiens, UniProt P07339); assay: Human osteoporosis fibroblasts cathepsin D (azo-casein) activity; type: cell-based
T3 construct: azocasein assay pH 5.0
T3 sequence (P07339 65-412): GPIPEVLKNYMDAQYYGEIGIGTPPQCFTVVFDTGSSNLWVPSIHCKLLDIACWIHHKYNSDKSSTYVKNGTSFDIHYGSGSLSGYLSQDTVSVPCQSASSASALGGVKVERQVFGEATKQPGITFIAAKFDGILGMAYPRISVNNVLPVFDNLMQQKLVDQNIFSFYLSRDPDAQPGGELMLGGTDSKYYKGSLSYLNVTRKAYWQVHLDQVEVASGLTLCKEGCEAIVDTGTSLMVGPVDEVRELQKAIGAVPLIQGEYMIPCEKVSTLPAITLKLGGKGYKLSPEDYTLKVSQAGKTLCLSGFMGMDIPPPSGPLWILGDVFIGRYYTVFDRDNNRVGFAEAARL
Source text: Osteoporosis Human Fibroblast-CRL-1140, Be SA1

Aryl sulphatase [6] = assay: Human osteoporosis fibroblasts aryl sulphatase activity; type: cell-based
Source text: 3. Aryl sulphatase- p-nitrocatechol sulfate, pH
5. 8 p-nitro-catechol product 510 nm.

[7] = system: Prostaglandin cyclooxygenase; assay: Human osteoporosis fibroblasts prostaglandin cyclooxygenase activity; type: cell-based; conditions: Table XI, 60 min incubation, read-out: Prostaglandin Cyclooxygense IC50
[8] = molecular target: Clostridium histolyticum Collagenase Type II; assay: Commercial collagenase type II; type: biochemical; conditions: Table IX; commercial enzyme preparation
Source text: 4. Collagenase II, Clostridium histolyticum, cartilage collagen.

[9] = molecular target: Clostridium histolyticum Collagenase Type I; assay: Commercial collagenase type I; type: biochemical; conditions: Table IX; commercial enzyme preparation
Source text: 3. Collagenase I, Clostridium histolyticum, bone, skin, tendon, blood vessel, dentine, GI. substrate: rat collagen, N-[propionate-2-3-^3 H] propionylated measured as dpm released.

Calcium = assay: Serum and urine calcium levels in vivo; conditions: Cf1 male mice, 8 mg/kg/day I.P. 14 days, N=6
Cathepsin D [10] = molecular target: T4, Cathepsin D (Mus musculus, UniProt P18242); assay: Mouse hepatic lysosomal cathepsin D activity; type: biochemical; conditions: Table V; mouse hepatic, 60 min incubation; read-out: Cathepsin D IC50
T4 construct: azocasein assay pH 5.0
T4 sequence (P18242 65-410): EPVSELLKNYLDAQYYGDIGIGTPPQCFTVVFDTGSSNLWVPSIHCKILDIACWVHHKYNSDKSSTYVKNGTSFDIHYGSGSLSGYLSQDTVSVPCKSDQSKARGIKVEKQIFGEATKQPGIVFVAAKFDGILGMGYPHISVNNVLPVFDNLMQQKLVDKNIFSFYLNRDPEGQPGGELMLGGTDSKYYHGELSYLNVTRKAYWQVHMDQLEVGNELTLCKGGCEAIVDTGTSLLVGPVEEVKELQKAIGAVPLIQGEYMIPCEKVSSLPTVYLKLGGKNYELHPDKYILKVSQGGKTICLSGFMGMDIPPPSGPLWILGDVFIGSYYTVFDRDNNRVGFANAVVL
Source text: as §1
Lysosomal Enzymes - free and total [triton X-100].
2. Acid Cathepsin D -azocasein-pH 5.0, hydrolytic azo-peptide produce 366 nm.
Cathepsin azo casein activity -

Trypsin [11] = assay: Mouse macrophage trypsin (BAEE) activity; type: cell-based; conditions: Table VIII; mouse macrophages, 60 min incubation; read-out: Trypsin BAEE IC50
Source text: 3. Mouse macrophages J774A.1 BALB/c

Elastase [12] = assay: Mouse macrophage elastase activity; type: cell-based; conditions: Table VIII; mouse macrophages, 60 min incubation; read-out: Elastase IC50
Source text: Mouse macrophages J774A.1 BALB/c

In the case of `CCCCCCCCCCCCCCCC[N+](C)(C)[BH2-]C(=O)O` [Compound 7, N,N-Dimethylhexadecylamine-carboxyborane], the “hepatic Pg-E2 synthesis reduced” value (Pg-E2 synthesis) is reported as 32%, the “3H-Arachidonic acid conversion to Pg-E2 reduced” value (Pg-E2 synthesis; CF1 hepatic liver) is reported as 43% and the IC50 (Elastase [1]) is reported as 49.6 µM. It also gave an IC50 (Aryl sulphatase [2]) of 9.71 µM, an IC50 (Trypsin [3]; Table VIIIA, osteoporosis fibroblasts in vitro, read-out: Trypsin (BAEE) IC-50) of 7.4 µM and an IC50 (Trypsin [3]; Table XI, human osteoporosis fibroblasts, 60 min incubation, read-out: Trypsin BAEE IC50) of 7.4 µM. For the same compound, the IC50 (Elastase [4]; Table VIIIA, osteoporosis fibroblasts in vitro, read-out: Elastase IC-50) was 3.86 µM, the IC50 (Elastase [4]; Table XI, human osteoporosis fibroblasts, 60 min incubation, read-out: Elastase IC50) was 3.86 µM and the IC50 (5'-lipoxygenase) was 55.8 µM. For the same compound, the IC50 (Prostaglandin synthetase) was 2.86 µM, the Hydroxyproline serum (Hydroxyproline) was 84.1 % Control and the Hydroxyproline urine (Hydroxyproline) was 28.7 % Control. For the same compound, the IC50 (Cathepsin D [5]; Table VIIIA, osteoporosis fibroblasts in vitro, read-out: Cathepsin Azo-casein IC-50) was 2.06 µM, the IC50 (Cathepsin D [5]; Table X, human osteoporosis fibroblasts, DMEM +10% FCS + P/S, read-out: Cathepsin D IC50) was 2.06 µM and the IC50 (Aryl sulphatase [6]; Table VIIIA, osteoporosis fibroblasts in vitro, read-out: Aryl Sulfatase IC-50) was 9.01 µM. For the same compound, the IC50 (Aryl sulphatase [6]; Table X, human osteoporosis fibroblasts, read-out: Aryl Sulphatase IC50) was 9.01 µM, the IC50 [7] was 6.77 µM and the IC50 [8] was 109 µM. The IC50 [9] was 615 µM, the Calcium urine (Calcium) was 80.7 % Control and the IC50 (Cathepsin D [10]) was 2.82 µM. It also gave an IC50 (Trypsin [11]) of 1.26 µM and an IC50 (Elastase [12]) of 1.8 µM.

— patent publication US5312816A, “Method of combatting osteoporosis in mammalian subjects, utilizing organic boron compounds” (priority 1993, dated 1994)
